What was measured:
HT-29 colon cancer cells = assay: Cell proliferation of HT-29 cells (hemacytometer count, Trypan blue exclusion); assay type: cell-based, human; conditions: HT-29 carcinoma cells, pure anthocyanin
Method: Cell Culture—Human HT-29 colon cancer cells (ATCC, HTB 38) were grown in McCoy's 5A medium (BioWhitaker Inc., Walkersville, Md.), and normal colon epithelial cells, NCM460 (INCELL Corp. LLC, Austin, Tex.) were grown in 25% conditioned M3:10 medium (INCELL Corp., LLC). Media were supplemented with 10% fetal bovine serum (FBS) and 1× antibiotic-antimycotic (Invitrogen Corporation, Carlsbad, Calif.), and cells were maintained in a humidified atmosphere of 95% air/5% CO2 at 37° C. […] Cell Proliferation—Freshly trypsinized cells were seeded in 25-cm^2 (1×10^6 cells) or 75-cm^2 (2×10^6 cells) flasks in duplicate. The cells were grown for 24 h under normal growth conditions prior to treatment with chokeberry ARE. Freshly prepared ARE was added in concentrations ranging from 10 to 200 μg monomeric anthocyanin/ml medium. A vehicle control contained acidified water and was added at the same volume as ARE added to treated cells. […] Prior to exposure to ARE for 24 h, 48 h or 72 h treatments, the medium was replaced with fresh medium (10% FBS) containing either vehicle control (acidified water) or ARE. For each time point, the cells were trypsinized and centrifuged at 400 g for 10 min at room temperature. Aliquots of cells were counted using a hemacytometer and viability measured using Trypan blue dye exclusion.

[1] = tested on: HCT-15 cells derived from human colon carcinoma; conditions: Kamei and coworkers (1995); cited from earlier work

| Compound | cancerous colonic cell growth (visual observations of cell growth and viability) (HT-29 colon cancer cells) | dose for 50% cell growth suppression [1] [µg/mL] |
| --- | --- | --- |
| OC[C@H]1O[C@@H](Oc2cc3c(O)cc(O)cc3[o+]c2-c2ccc(O)c(O)c2)[C@H](O)[C@@H](O)[C@H]1O [cyanidin-3-galactoside] | notably inhibited | – |
| Oc1ccc(-c2[o+]c3cc(O)cc(O)c3cc2O)cc1 [pelargonidin, Pelargonidin] | – | 5 |
| Oc1cc(O)c2cc(O)c(-c3ccc(O)c(O)c3)[o+]c2c1 [cyanidin, Cyanidin] | – | 2 |
| Oc1cc(O)c2cc(O)c(-c3cc(O)c(O)c(O)c3)[o+]c2c1 [delphinidin, Delphinidin] | – | 0.5 |

Reference: US8034388B2, “Anthocyanin-rich compositions and methods for inhibiting cancer cell growth” (The University of Maryland, priority 2003, dated 2011)
